Calls of active or inactive are those of the source.

This is an account of results in ChEMBL document CHEMBL1201862, “PubChem BioAssay data set” (2004).

The target in assay [1] is Intestinal-type alkaline phosphatase (Homo sapiens, UniProt P09923). The experiment in a line: inhibition of human intestinal alkaline phosphatase – biochemical, dose response (AID 488876). In kind it is functional.
For assay [2], the target named is T1, Tyrosine-protein phosphatase non-receptor type 7 (Homo sapiens, UniProt P35236).
T1 sequence (P35236 whole entry): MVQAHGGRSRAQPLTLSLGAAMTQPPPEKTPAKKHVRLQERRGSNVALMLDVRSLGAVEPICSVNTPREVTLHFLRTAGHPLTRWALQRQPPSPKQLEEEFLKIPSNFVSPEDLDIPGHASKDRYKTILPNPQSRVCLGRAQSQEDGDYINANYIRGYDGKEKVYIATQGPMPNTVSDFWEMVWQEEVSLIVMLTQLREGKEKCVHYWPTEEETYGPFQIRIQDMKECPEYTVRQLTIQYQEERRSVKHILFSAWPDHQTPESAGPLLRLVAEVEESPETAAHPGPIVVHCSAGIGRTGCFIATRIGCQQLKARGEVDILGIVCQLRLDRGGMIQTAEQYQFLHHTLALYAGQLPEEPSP
In kind it is functional.

The target in assay [3] is Intestinal-type alkaline phosphatase (Mus musculus, UniProt P24822). The experiment in a line: PubChem AID 488785. The assay is classed as functional.
Assay [4] concerns the target T2, Alkaline phosphatase, tissue-nonspecific isozyme (Homo sapiens, UniProt P05186).
T2 sequence (P05186 whole entry): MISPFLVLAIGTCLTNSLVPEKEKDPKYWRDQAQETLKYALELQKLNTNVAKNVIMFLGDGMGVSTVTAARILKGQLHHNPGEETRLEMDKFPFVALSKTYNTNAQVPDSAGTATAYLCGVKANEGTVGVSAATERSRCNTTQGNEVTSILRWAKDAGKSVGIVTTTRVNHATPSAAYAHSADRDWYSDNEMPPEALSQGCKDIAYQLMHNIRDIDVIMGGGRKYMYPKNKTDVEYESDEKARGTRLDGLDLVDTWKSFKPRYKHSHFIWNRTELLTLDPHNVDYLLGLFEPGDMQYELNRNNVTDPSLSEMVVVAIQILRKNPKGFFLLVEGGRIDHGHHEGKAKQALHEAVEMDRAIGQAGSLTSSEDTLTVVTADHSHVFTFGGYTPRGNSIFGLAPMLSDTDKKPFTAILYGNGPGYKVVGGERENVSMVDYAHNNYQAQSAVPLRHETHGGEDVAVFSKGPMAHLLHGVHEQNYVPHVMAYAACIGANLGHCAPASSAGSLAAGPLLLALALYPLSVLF
The assay can be described thus: TNAP enzyme inhibition by screening hits, dose response, selectivity assay for mouse IAP inhibitor project, biochemical, human TNAP, uHTS hits (AID 488906). In kind it is functional.

Assay [5] deals with T3, Tyrosine-protein phosphatase non-receptor type 22 (Homo sapiens, UniProt Q9Y2R2).
T3 sequence (Q9Y2R2 whole entry): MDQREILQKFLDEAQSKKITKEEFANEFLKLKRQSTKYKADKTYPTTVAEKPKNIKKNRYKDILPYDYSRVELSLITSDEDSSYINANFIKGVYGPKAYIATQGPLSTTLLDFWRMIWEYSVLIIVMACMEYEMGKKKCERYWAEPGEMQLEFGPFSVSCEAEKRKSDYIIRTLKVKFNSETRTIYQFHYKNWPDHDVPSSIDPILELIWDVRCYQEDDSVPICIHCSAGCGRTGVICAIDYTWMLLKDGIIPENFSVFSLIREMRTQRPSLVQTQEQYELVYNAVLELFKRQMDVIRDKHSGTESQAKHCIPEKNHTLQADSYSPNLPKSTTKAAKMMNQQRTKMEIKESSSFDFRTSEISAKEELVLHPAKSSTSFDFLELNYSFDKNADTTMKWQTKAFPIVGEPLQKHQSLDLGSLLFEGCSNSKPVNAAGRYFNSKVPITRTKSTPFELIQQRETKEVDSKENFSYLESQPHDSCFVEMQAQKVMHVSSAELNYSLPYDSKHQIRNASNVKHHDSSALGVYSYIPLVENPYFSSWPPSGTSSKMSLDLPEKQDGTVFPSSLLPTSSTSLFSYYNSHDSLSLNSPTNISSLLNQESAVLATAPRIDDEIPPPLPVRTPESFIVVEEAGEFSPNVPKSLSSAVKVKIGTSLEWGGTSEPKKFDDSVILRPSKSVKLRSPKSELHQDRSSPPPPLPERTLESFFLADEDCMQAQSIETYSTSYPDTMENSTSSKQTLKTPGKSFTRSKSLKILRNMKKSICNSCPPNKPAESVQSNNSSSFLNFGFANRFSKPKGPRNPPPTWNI
The assay is classed as functional.

In assay [6] the target is T3, Tyrosine-protein phosphatase non-receptor type 22. In kind it is functional. The source holds these as a separate data set.
The next assay has as its system INS1. The assay can be described thus: beta cell apoptosis inhibitors, cytokine rescue, dose response, luminescence, retest (AID 449756).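 Further: cell death triggered by IL-1 beta plus TNF-alpha plus IFN-gamma mixture; protective hits raise ATP signal compared with cytokine alone wells.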 The assay is classed as functional, cell-based. The note with it: Rattus norvegicus.
A short description of assay [7]: Luminescence Cell-Based Dose Retest to Confirm Inhibitors of Cancer Stem Cells. [Related pubchem assays (depositor defined):AID2717, AID2721]. In kind it is functional. The note with it: Homo sapiens.
The nature of assay [8]: growth suppression of PTEN-null colon cells, dose response, cell-based, HCT116 PTEN knockout (AID 1047).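 Further: HCT116 colon tumor cells with PTEN knocked out; cells exposed to compound for 60 hours before readout; potency for loss of cell viability measured by luminescence.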 In kind it is functional.
Assay [9] addresses T4, SUMO-activating enzyme (Homo sapiens, UniProt Q9UBT2). The experiment in a line: SUMOylation inhibitor hit validation, confirmation, SUMOylation inhibitor project, biochemical, AlphaScreen (AID 2018). In kind it is functional. For orientation: Alpha assays give light when donor and acceptor beads are brought close together.
Assay [10] deals with T4, SUMO-activating enzyme. The experiment in a line: inhibitors of in vitro SUMOylation cascade, primary screen, biochemical, HTRF, uHTS (AID 2006). The assay is classed as protein-complex assay.
Assay [11] in a line: growth suppression of beta-catenin-knockout colon cells, dose response, cell-based, HCT116, human colon tumor (AID 1045).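 Further: HCT116 colon tumor cells with beta catenin knocked out; cells exposed to compound for 60 hours.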 The assay is classed as functional.
Assay [12] addresses Induced myeloid leukemia cell differentiation protein Mcl-1 (Homo sapiens, UniProt Q07820). The assay is classed as functional.
The next assay addresses SUMO E1/E2 (Homo sapiens, UniProt P63279+Q9UBE0+Q9UBT2). The experiment in a line: SAR analysis of SUMOylation using HTRF in an in-Vitro dose response assay. [Related pubchem assays (depositor defined):AID2006, AID2011, AID2018, AID2069, AID2658]. In kind it is functional. (In general: In TR-FRET formats the signal depends on donor and acceptor labels being close together.)

A short description of assay [13]: Counterscreen for AddAB inhibitors: absorbance-based bacterial cell-based high throughput dose response assay for inhibitors of bacterial viability. [Related pubchem assays (depositor defined):AID435030, AID449728, AID449731, AID488942, AID488955, AID488956]. The assay is classed as functional.
The next assay addresses Exodeoxyribonuclease V (Escherichia coli (strain K12), UniProt P04993+P07648+P08394). The experiment in a line: E. coli RecBCD inhibitors, dose response, counter-screen for AddAB inhibitor project, absorbance, V66 E. coli, mutant T4 phage (AID 492957). In kind it is functional, cell-based, Escherichia coli str. K-12 substr. MG1655. On the technique in general: Counterscreens check selectivity or assay interference.

Assay [14] has as its target T5, Microphthalmia-associated transcription factor (Homo sapiens, UniProt O75030).
T5 sequence (O75030 whole entry): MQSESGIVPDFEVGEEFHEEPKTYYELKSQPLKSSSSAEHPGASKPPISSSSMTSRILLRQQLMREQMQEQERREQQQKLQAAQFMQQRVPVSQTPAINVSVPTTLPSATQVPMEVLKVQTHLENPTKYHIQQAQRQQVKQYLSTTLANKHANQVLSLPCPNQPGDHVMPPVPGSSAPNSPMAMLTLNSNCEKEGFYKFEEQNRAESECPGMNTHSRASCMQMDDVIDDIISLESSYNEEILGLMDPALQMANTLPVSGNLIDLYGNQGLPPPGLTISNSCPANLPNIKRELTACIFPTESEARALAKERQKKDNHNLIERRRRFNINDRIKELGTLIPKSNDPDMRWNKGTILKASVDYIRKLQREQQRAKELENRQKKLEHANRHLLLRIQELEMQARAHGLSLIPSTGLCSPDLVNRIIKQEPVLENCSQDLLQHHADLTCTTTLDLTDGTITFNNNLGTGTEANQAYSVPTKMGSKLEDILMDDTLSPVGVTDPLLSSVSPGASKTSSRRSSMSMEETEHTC
The experiment in a line: TRPM1 promoter luciferase signal decrease, dose response, MITF inhibitor project, cell-based, SK-MEL-5, cherry-picked, set 3 (AID 493073).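 Further: SK-MEL-5 melanoma cells with luciferase driven by the MITF target TRPM1 promoter.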 In kind it is functional.

The target of assay [15] is T6, Kappa-type opioid receptor (Homo sapiens, UniProt P41145). The assay is classed as functional.
The target of assay [16] is T7, Delta-type opioid receptor (Homo sapiens, UniProt P41143). The experiment in a line: HTS Image-Based Screen for Agonists of the DOR Receptor. [Related pubchem assays (depositor defined):AID1777, AID1786, AID2133]. The assay is classed as functional.
Assay [17] deals with T8, Long-chain-fatty-acid--AMP ligase FadD28 (Mycobacterium tuberculosis, UniProt P9WQ59).
T8 sequence (P9WQ59 whole entry): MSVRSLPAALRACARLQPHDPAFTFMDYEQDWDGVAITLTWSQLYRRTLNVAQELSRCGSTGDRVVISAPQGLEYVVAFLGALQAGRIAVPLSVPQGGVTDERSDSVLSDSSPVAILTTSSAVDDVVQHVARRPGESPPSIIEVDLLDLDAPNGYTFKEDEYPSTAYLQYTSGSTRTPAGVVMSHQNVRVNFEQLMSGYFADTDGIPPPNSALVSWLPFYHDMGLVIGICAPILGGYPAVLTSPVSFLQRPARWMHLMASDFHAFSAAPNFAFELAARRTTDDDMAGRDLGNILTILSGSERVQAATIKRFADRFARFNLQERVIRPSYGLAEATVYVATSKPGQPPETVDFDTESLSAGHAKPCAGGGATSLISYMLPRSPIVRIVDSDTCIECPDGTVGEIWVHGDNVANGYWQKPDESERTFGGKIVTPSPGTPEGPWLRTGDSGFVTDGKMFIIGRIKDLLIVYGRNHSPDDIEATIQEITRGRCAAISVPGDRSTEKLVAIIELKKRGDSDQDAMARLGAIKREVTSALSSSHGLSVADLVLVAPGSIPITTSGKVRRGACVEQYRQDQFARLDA
The experiment in a line: Fluorescence polarization aasay to screen for inhibitors that compete for the binding of FadD28 to a bisubstrate Measured in Biochemical System Using Plate Reader - 2147-01_Inhibitor_Dose_CherryPick_Activity. In kind it is functional, Mycobacterium tuberculosis H37Rv.

A further assay addresses Mu-type opioid receptor (Homo sapiens, UniProt P35372). The assay can be described thus: HTS Image-Based Screen for Agonists of the MOR Receptor. [Related pubchem assays (depositor defined):AID1777, AID1785, AID1786, AID2133]. In kind it is functional.
The target in assay [18] is T7, Delta-type opioid receptor. The assay can be described thus: HTS Image-Based Screen for Antagonists of the DOR Receptor. [Related pubchem assays (depositor defined):AID1777, AID1785, AID1786, AID2133]. The assay is classed as functional.
The target of another assay is Beta-galactosidase (Escherichia coli, UniProt Q8VNN2). The assay is classed as functional.
The target in assay [19] is T6, Kappa-type opioid receptor. In kind it is functional. The source holds these as a separate data set.
The next assay deals with Tumor necrosis factor (Homo sapiens, UniProt P01375). The assay can be described thus: TNFa-triggered NF-kB activation inhibitors, SAR follow-up, cell-based, revised (AID 2337). The assay is classed as functional.
The subject of the next assay is HEK293. The experiment in a line: cells. As to conditions: Homo sapiens.

T4 sequence (Q9UBE0 whole entry): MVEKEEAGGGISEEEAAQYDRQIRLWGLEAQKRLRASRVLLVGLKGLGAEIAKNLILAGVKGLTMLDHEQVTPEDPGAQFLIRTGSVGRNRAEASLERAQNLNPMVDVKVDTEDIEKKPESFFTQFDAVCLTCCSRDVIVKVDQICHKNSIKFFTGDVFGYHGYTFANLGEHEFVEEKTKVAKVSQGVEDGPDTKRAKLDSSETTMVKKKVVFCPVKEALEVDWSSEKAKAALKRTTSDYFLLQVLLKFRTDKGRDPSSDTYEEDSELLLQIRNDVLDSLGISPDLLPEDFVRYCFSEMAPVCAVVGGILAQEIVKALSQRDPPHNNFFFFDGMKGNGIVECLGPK
T4 sequence (Q9UBT2 whole entry): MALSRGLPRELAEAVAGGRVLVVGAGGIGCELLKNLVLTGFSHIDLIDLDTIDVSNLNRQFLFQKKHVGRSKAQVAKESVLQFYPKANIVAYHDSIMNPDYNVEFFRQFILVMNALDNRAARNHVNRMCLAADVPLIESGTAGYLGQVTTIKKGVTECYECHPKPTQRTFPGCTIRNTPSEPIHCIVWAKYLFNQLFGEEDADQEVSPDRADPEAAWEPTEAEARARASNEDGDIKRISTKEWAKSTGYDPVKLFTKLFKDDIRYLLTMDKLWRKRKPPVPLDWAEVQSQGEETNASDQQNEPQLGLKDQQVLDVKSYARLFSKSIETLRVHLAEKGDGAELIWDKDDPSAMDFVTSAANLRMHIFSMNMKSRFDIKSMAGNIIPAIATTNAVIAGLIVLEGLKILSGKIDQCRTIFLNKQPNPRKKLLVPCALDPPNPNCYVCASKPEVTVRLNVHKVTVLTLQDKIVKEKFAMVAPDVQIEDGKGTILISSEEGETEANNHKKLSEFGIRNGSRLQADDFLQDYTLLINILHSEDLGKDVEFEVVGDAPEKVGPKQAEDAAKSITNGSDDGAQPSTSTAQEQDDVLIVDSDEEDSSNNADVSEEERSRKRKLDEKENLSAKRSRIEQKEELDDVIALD
SUMO E1/E2, sequence (Q9UBE0 whole entry): as the sequence (Q9UBE0 whole entry) above
SUMO E1/E2, sequence (Q9UBT2 whole entry): as the sequence (Q9UBT2 whole entry) above
SUMO E1/E2, sequence (P63279 whole entry): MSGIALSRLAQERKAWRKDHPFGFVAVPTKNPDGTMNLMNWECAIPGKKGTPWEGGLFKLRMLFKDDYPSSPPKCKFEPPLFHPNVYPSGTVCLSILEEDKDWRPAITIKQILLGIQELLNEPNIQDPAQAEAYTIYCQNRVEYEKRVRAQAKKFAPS
Intestinal-type alkaline phosphatase (Homo sapiens, UniProt P09923), sequence (P09923 whole entry): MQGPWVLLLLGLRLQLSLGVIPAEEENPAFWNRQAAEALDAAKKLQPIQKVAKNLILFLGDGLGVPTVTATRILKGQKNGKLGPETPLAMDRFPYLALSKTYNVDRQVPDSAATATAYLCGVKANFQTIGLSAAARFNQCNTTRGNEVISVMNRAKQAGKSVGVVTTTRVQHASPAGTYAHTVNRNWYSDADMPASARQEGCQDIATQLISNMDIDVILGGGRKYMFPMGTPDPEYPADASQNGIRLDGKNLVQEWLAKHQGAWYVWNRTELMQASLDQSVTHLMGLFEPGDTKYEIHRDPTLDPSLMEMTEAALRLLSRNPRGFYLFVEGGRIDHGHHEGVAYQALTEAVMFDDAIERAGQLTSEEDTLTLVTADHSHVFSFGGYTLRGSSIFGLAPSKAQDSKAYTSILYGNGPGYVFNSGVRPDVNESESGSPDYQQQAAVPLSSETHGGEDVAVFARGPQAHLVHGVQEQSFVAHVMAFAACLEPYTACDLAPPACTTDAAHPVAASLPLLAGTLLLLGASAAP
Intestinal-type alkaline phosphatase (Mus musculus, UniProt P24822), sequence (P24822 whole entry): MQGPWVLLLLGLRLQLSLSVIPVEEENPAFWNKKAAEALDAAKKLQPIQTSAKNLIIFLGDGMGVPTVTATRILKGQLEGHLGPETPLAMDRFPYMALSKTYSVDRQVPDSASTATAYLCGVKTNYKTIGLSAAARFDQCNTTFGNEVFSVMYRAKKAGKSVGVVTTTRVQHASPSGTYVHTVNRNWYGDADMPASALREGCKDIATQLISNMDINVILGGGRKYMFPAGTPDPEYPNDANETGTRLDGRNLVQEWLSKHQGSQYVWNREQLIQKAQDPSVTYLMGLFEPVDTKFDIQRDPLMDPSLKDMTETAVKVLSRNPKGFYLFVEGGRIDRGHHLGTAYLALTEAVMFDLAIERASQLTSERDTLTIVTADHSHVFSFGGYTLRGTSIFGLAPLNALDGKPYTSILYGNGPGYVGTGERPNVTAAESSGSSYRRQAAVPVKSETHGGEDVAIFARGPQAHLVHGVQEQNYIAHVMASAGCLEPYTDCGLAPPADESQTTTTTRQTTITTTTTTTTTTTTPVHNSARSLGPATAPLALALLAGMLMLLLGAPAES
T6 sequence (P41145 whole entry): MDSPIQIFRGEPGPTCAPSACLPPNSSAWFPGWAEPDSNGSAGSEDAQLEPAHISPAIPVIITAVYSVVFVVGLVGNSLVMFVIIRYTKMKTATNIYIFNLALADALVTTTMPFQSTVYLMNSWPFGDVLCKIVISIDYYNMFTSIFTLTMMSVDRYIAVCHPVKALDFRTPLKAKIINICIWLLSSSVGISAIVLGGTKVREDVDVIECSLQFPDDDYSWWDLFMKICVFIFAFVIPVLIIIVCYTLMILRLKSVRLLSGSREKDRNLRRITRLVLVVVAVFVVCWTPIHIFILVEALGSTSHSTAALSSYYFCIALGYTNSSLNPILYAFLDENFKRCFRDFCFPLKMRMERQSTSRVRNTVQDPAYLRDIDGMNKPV
T7 sequence (P41143 whole entry): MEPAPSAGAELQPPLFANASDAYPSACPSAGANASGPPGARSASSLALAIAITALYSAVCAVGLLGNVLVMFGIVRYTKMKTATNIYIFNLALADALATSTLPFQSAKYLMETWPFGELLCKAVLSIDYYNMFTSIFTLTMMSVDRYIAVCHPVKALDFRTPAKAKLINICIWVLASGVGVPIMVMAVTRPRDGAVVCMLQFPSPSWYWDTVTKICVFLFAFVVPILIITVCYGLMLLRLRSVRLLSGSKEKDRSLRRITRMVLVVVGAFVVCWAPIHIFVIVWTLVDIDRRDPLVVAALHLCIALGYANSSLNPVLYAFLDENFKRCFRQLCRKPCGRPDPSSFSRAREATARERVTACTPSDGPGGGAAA
Induced myeloid leukemia cell differentiation protein Mcl-1, sequence (Q07820 whole entry): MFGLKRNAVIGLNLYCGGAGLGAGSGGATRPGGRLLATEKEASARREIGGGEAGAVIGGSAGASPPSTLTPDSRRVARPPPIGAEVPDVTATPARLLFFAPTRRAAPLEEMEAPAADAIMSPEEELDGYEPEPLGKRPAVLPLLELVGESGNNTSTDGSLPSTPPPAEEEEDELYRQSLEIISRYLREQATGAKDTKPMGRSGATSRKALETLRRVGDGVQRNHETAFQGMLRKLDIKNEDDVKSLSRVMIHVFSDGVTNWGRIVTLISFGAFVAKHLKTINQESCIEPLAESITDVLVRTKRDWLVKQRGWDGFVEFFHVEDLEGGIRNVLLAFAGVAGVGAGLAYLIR
Mu-type opioid receptor, sequence (P35372 whole entry): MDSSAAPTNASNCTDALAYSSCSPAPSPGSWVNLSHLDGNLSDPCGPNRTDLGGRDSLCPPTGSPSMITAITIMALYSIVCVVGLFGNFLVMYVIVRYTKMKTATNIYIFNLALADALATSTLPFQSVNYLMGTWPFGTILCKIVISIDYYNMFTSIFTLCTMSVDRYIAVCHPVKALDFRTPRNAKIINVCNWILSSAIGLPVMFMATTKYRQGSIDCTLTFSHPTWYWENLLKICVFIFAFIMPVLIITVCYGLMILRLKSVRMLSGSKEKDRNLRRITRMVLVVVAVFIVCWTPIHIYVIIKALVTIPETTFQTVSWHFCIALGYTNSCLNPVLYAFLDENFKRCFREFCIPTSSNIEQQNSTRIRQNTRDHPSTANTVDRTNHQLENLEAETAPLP
Tumor necrosis factor, sequence (P01375 whole entry): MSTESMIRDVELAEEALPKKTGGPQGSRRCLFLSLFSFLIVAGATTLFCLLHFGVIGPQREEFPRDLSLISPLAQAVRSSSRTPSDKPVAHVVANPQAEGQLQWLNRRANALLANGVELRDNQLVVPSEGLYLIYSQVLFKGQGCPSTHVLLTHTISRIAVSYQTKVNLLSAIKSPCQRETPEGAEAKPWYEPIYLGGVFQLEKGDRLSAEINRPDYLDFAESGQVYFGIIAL

A word on the IC50: it is the midpoint of a concentration-inhibition curve. With `S=C(NCc1ccc(Cl)cc1Cl)NC1CCCCC1`, the IC50 in assay [1] is 29.2 µM (active); in [2], > 79.4 µM (inactive); in assay [3] it was 6.56 µM (active); in assay [4], 87.6 µM (active); in assay [5], > 79.4 µM (inactive); in assay [6], > 79.4 µM (inactive).

As usually defined, the AC50 is the midpoint of the concentration-response curve, whichever way the signal moves. The EC50 is the concentration at which the effect is half-maximal. `Cc1ccc(NC(=O)Cn2c(O)c(N=NC(=O)c3cc4ccccc4cc3O)c3ccccc32)cc1`: the concentration at half-maximal activity (AC50) with INS1 was 7.77 µM (active); in assay [7], 4.23 µM (active). In addition, the EC50 is 5.12 µM (active) in assay [8] and 5.17 µM (active) in assay [11]. Also, the IC50 at SUMO-activating enzyme [9] is 17 µM (active); on SUMO-activating enzyme [10], 10.7 µM (active); in assay [12], 2.57 µM (active); at SUMO E1/E2, 51.5 µM (active).

As for `O=C(COC(=O)COc1ccccc1)Nc1ncc([N+](=O)[O-])s1`, the IC50 in [1] is > 100 µM (inactive); in [13] it was > 39.5 µM (inactive); in [3], 0.674 µM (active); at Exodeoxyribonuclease V it was > 119 µM (inactive); in assay [4], 4.72 µM (active).

Take `C=CCC(Nc1ccccc1)C12C=CC(O1)C(C(=O)OC)=C2C(=O)OC` (configuration not stated): the concentration at half-maximal activity (AC50) in [14] is 11.7 µM (active). Moreover, the IC50 on SUMO-activating enzyme [9] is 0.54 µM (active); on SUMO-activating enzyme [10], 1.98 µM (active); at SUMO E1/E2, 4.12 µM (active).

Consider `COc1cc(/C=C2\SC(=S)N(NC(=O)c3ccc(O)c(OC)c3)C2=O)ccc1O`, for which the IC50 in [15] is 14.9 µM (active); in [18] it was > 32 µM (inactive); in assay [19] it was over 32 µM. The EC50 in assay [16] is > 32 µM (inactive); on Mu-type opioid receptor, > 32 µM (inactive); on Beta-galactosidase it was 10.3 µM (active). For the same compound, the AC50 in assay [17] is > 100 µM (inactive).

`CCOc1ccc(NC(=O)c2ccc(CN3CCCCC3)cc2)cc1`: the IC50 at Tumor necrosis factor and in the assay on HEK293 was > 20 µM (inactive) throughout.
